# Laboratory results: patent publication US20250177396A1, “POLO-LIKE KINASE 4 (PLK4) INHIBITORS, PHARMACEUTICAL COMPOSITIONS, METHODS OF PREPARATION AND USES THEREOF” (Repare Therapeutics Inc., priority 2022, published 2025)
# Molecular target: T1, PLK4 (Homo sapiens, UniProt O00444)
# T1 construct: expressed in transfected cells; host or cells: HEK293 T cells (ATCC CRL-3216)
# T1 sequence (O00444 1-970): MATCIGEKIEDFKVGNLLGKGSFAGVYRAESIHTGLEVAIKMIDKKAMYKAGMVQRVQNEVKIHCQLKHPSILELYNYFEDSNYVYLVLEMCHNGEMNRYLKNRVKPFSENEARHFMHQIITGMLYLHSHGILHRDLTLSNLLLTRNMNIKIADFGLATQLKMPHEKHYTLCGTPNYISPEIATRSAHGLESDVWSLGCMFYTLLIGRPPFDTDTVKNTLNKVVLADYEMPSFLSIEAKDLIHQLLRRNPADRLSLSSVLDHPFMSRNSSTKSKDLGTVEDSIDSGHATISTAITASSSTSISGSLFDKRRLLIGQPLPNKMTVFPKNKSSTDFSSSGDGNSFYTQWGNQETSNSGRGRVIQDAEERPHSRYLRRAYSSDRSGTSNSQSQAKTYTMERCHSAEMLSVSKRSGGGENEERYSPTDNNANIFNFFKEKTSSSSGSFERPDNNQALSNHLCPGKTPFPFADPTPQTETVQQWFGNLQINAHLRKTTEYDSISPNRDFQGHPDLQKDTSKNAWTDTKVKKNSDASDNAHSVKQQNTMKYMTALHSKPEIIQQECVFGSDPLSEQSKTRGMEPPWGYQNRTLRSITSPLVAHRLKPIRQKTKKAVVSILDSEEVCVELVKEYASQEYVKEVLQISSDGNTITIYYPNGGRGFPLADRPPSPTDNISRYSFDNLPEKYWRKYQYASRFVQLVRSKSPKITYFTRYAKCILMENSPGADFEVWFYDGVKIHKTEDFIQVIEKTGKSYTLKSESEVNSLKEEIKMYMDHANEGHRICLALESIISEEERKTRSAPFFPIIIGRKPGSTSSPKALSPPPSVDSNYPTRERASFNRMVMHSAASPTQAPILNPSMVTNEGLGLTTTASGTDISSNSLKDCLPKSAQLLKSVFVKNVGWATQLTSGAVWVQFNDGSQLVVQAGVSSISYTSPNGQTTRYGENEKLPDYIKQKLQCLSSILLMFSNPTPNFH
# Assay: PLK4 NanoBRET target engagement assay
# Type: binding
# Conditions: HEK293 T cells transfected with PLK4 NanoLuc fusion vector; K-5 tracer; 2 hrs incubation
# Experimental: To determine the affinity of Compounds described herein in the PLK4 NanoBRET target engagement assay, HEK293 T cells (ATCC Product Number CRL-3216) are first transfected with the PLK4 NanoLuc fusion vector DNA and Transfection carrier DNA using the Fugene HD Transfection reagent in Opti-MEM No Phenol Red buffer. After an overnight incubation in a 37° C./5% CO2 incubator, the transfected HEK293 T cells are trypsinized, counted, and resuspended in Opti-MEM No Phenol Red buffer at a concentration of 200000 cells/mL. White 96-well plates are then plated with 85 μL of cells (17000 cells/well) to which 5 μL of the 20×K-5 tracer solution diluted in tracer dilution buffer is added. Finally, 10 μL of the 10× compounds are added and the plates and then incubated in a 37° C./5% CO2 incubator for 2 hrs. After the incubation, a 50 uL 3× solution of the substrate/inhibitor mix is added to the cells. The plate is then transferred in the Envision plate reader where the Acceptor emission (610 nm) and the Donor emission (450 nm) are measured.
# The IC50 of compounds is determined as follows: • 1. The ratio between the Acceptor emission (610 nm)/Donor emission (450 nm) is calculated. • 2. This ratio is then multiplied by 1000 to obtain the mBRET units (multiplying by 1000 is an arbitrary step that simply makes the data easier to interpret; it has no impact on the data set itself) • 3. The mBRET units are then used in Scigilian Analyze software (https://analyze.scigilian.io) to determine the IC50 value using a 4-parameter fit analysis.
row,IC50,SMILES
1,1.1 µM,COc1c(Nc2cc(C)[nH]n2)nc(Oc2ccc(S(C)(=O)=O)cc2Br)nc1-c1cnn(C)c1 [Compound 33]
2,0.9 µM,COc1c(Nc2cc(C)[nH]n2)nc(Oc2ccc(S(C)(=O)=O)cc2Cl)nc1-c1cnn(C)c1 [Compound 34]
3,7 µM,COc1c(Nc2cc(C)[nH]n2)nc(Oc2ccc(Br)c(C#N)c2)nc1-c1cnn(C)c1 [Compound 36]
4,0.55 µM,COc1c(Nc2cc(C)[nH]n2)nc(Nc2ccc(S(C)(=O)=O)cc2)nc1-c1cnn(C)c1 [Compound 37]
5,0.01 µM,Cc1cc(Nc2nc(N(C)c3c(F)cc(S(C)(=O)=O)cc3F)nc(-c3cn[nH]c3)c2C2CC2)n[nH]1 [Compound 40]
6,0.68 µM,COc1c(Nc2cc(C)[nH]n2)nc(N(C(C)=O)c2ccc(S(C)(=O)=O)cc2F)nc1-c1cnn(C)c1 [Compound 41]
7,0.014 µM,Cc1cc(Nc2nc(N(C)c3ccc(S(C)(=O)=O)cc3F)nc(-c3cnn(C)c3)c2C)n[nH]1 [Compound 42]
8,0.18 µM,Cc1cc(Nc2nc(N(C)c3ccc(S(C)(=O)=O)cc3F)nc(-c3cnnn3C)c2C2CC2)n[nH]1 [Compound 43]
9,0.24 µM,Cc1cc(Nc2nc(N(C)c3ccc(S(C)(=O)=O)cc3F)nc(-c3ncc(C)s3)c2C2CC2)n[nH]1 [Compound 44]
10,0.14 µM,Cc1csc(-c2nc(N(C)c3ccc(S(C)(=O)=O)cc3F)nc(Nc3cc(C)[nH]n3)c2C2CC2)n1 [Compound 45]
11,0.11 µM,COc1c(Nc2cc(C)[nH]n2)nc(N(C)c2ccc(CN3CCOC3=O)cc2)nc1-c1cnn(C)c1 [Compound 46]
12,2.3 µM,COc1c(Nc2cc(C)[nH]n2)nc(N(C)c2ccc(CS(C)(=O)=O)cc2)nc1-c1cnn(C)c1 [Compound 47]
13,0.05 µM,Cc1cc(Nc2nc(N(C)c3ccc(S(C)(=O)=O)cc3Cl)nc(-c3ccn(C)n3)c2C2CC2)n[nH]1 [Compound 48]
14,0.054 µM,COc1c(Nc2cc(C)[nH]n2)nc(N(C)c2ccc(S(C)(=O)=O)c(F)c2F)nc1-c1cnn(C)c1 [Compound 49]
15,0.77 µM,COc1c(Nc2cc(C)[nH]n2)nc(N(C)c2ccc(CN(C(C)=O)c3ccccc3)cc2F)nc1-c1cnn(C)c1 [Compound 50]
16,0.22 µM,CCCS(=O)(=O)c1ccc(N(C)c2nc(Nc3cc(C)[nH]n3)c(OC)c(-c3cnn(C)c3)n2)cc1 [Compound 51]
17,0.29 µM,COc1c(Nc2cc(C)[nH]n2)nc(N(C)c2ccc(CN(C)C(=O)c3ccccc3)cc2F)nc1-c1cnn(C)c1 [Compound 52]
18,0.063 µM,Cc1cc(Nc2nc(N(C)c3ccc(S(C)(=O)=O)cc3Br)nc(-c3cnn(C)c3)c2C2CC2)n[nH]1 [Compound 53]
19,2.1 µM,COc1c(Nc2cc(C)[nH]n2)nc(N(C)c2ccc(S(C)(=O)=O)nc2C)nc1-c1cnn(C)c1 [Compound 54]
20,0.32 µM,COc1c(Nc2cc(C)[nH]n2)nc(N(C)c2ccc(S(=O)(=O)CC(C)C)cc2)nc1-c1cnn(C)c1 [Compound 55]
21,0.13 µM,Cc1cc(Nc2nc(N(C)c3ccc(S(C)(=O)=O)cc3C)nc(-c3cnn(C)c3)c2C2CC2)n[nH]1 [Compound 56]
22,1.1 µM,COc1c(Nc2cc(C)[nH]n2)nc(N(C)c2ccc(S(C)(=O)=O)nc2)nc1-c1cnn(C)c1 [Compound 58]
23,0.28 µM,COc1c(Nc2cc(C)[nH]n2)nc(N(C)c2ccc(-c3ccnn3C)cc2)nc1-c1cnn(C)c1 [Compound 59]
24,> 5 µM,Cc1cc(Nc2nc(N(C)c3ccc(S(C)(=O)=O)cc3F)nc(-c3ccn(C)n3)c2C(C)C)n[nH]1 [Compound 60]
25,0.1 µM,COc1c(Nc2cc(C)[nH]n2)nc(N(C)c2ccc(C(C)(C)C#N)cc2)nc1-c1cnn(C)c1 [Compound 61]
26,0.028 µM,Cc1cc(Nc2nc(N(C)c3ccc(S(C)(=O)=O)cc3F)nc(-c3cnn(C4CN(S(C)(=O)=O)C4)c3)c2C2CC2)n[nH]1 [Compound 62]

row,IC50,SMILES
1,0.28 µM,COc1c(Nc2cc(C)[nH]n2)nc(N(C)c2ccc(C#N)cc2F)nc1-c1cnn(C)c1 [Compound 63]
2,0.059 µM,COc1c(Nc2cc(C)[nH]n2)nc(N(C)c2ccc(Cn3ccnc3)cc2F)nc1-c1cnn(C)c1 [Compound 64]
3,0.82 µM,COc1c(Nc2cc(C)[nH]n2)nc(N(C)c2cc3c(cc2F)OCO3)nc1-c1cnn(C)c1 [Compound 65]
4,0.27 µM,COCCCS(=O)(=O)c1ccc(N(C)c2nc(Nc3cc(C)[nH]n3)c(OC)c(-c3cnn(C)c3)n2)cc1 [Compound 67]
5,1 µM,COc1c(Nc2cc(C)[nH]n2)nc(N(C)c2ccc3c(c2)CCS3(=O)=O)nc1-c1cnn(C)c1 [Compound 68]
6,0.7 µM,COc1c(Nc2cc(C)[nH]n2)nc(N(C)c2ccc(Oc3nccs3)cc2)nc1-c1cnn(C)c1 [Compound 69]
7,0.17 µM,CCS(=O)(=O)c1ccc(N(C)c2nc(Nc3cc(C)[nH]n3)c(OC)c(-c3cnn(C)c3)n2)cc1 [Compound 70]
8,0.74 µM,COc1c(Nc2cc(C)[nH]n2)nc(N(C)c2cccc(C(=O)N(C)C)c2F)nc1-c1cnn(C)c1 [Compound 71]
9,0.82 µM,COc1c(Nc2cc(C)[nH]n2)nc(N(C)c2ccc(-c3nnc(C)o3)cc2)nc1-c1cnn(C)c1 [Compound 72]
10,1.2 µM,COc1ccc(F)c(N(C)c2nc(Nc3cc(C)[nH]n3)c(OC)c(-c3cnn(C)c3)n2)c1 [Compound 74]
11,0.6 µM,COc1c(Nc2cc(C)[nH]n2)nc(N(C)c2ccc(Br)cc2F)nc1-c1cnn(C)c1 [Compound 75]
12,0.046 µM,COc1c(Nc2cc(C)[nH]n2)nc(N(C)c2ccc(S(=O)(=O)C(C)(C)C)cc2F)nc1-c1cnn(C)c1 [Compound 76]
13,0.58 µM,COc1c(Nc2cc(C)[nH]n2)nc(N(CCN(C)C)c2ccc(S(C)(=O)=O)cc2F)nc1-c1cnn(C)c1 [Compound 77]
14,4.5 µM,COc1c(Nc2cc(C)[nH]n2)nc(N(C)c2cccc(S(C)(=O)=O)c2)nc1-c1cnn(C)c1 [Compound 78]
15,2.3 µM,COc1c(Nc2cc(C)[nH]n2)nc(N(C)c2ccc([S+](C)[O-])cc2)nc1-c1cnn(C)c1 (stereo not drawn) [Compound 79]
16,0.91 µM,COc1c(Nc2cc(C)[nH]n2)nc(N(C)c2ccc(-c3nccs3)cc2)nc1-c1cnn(C)c1 [Compound 80]
17,0.073 µM,Cc1cc(Nc2nc(N(C)c3ccc(S(=O)(=O)C(C)C)cc3)nc(-c3cnn(C)c3)c2C2CC2)n[nH]1 [Compound 81]
18,0.065 µM,Cc1cc(Nc2nc(N(C)c3ccc(S(=O)(=O)C(C)(C)C)cc3)nc(-c3cnn(C)c3)c2C2CC2)n[nH]1 [Compound 82]
19,0.19 µM,COc1c(Nc2cc(C)[nH]n2)nc(N(C)c2ccc(S(C)(=O)=O)cc2)nc1-c1cnn(C)c1 [Compound 83]
20,0.14 µM,COc1c(Nc2cc(C)[nH]n2)nc(N(c2ccc(S(C)(=O)=O)cc2F)C(C)C)nc1-c1cnn(C)c1 [Compound 84]
21,9.2 µM,CNC(=O)CN(c1nc(Nc2cc(C)[nH]n2)c(OC)c(-c2cnn(C)c2)n1)c1ccc(S(C)(=O)=O)cc1F [Compound 85]
22,0.12 µM,COc1c(Nc2cc(C)[nH]n2)nc(N(C)c2ccc(S(=O)(=O)C(C)(C)C)cc2)nc1-c1cnn(C)c1 [Compound 86]
23,0.16 µM,COc1c(Nc2cc(C)[nH]n2)nc(N(C)c2ccc(S(=O)(=O)C(C)C)cc2)nc1-c1cnn(C)c1 [Compound 87]
24,0.29 µM,COCCN(c1nc(Nc2cc(C)[nH]n2)c(OC)c(-c2cnn(C)c2)n1)c1ccc(S(C)(=O)=O)cc1F [Compound 88]
25,1.7 µM,COc1c(Nc2cc(C)[nH]n2)nc(-n2ccc3cc(S(C)(=O)=O)ccc32)nc1-c1cnn(C)c1 [Compound 89]
